Assay results as given in patent publication US6416746B1, “Indanylidene compounds” (Roche Vitamins Inc., priority 1998, dated 2002).

Legend:
[1] = Solubility in cosmetic solvents (CÉTIOL LC, CRODAMOL DA); conditions: for Solubility in CRODAMOL DA: solvent CRODAMOL DA (Diisopropyl adipate); for Solubility in CÉTIOL LC: solvent CÉTIOL LC (Coco-caprylate/caprate); for solubility in cosmetic solvents (in words): cosmetic solvents such as CÉTIOL LC and CRODAMOL DA
[2] = Photostability at high dilution in ethanol solution under Hg lamp with Pyrex filter; assay type: physicochemical
Description: A 25 ml reaction flask equipped with a distillation bridge and connected to vacuum was charged with 2 g (6.3 mmol) of cyano-(2,3-dihydro-5,6-dimethoxy-3,3-dimethyl-1H-inden-1-ylidene) acetic acid ethyl ester (see Example 1), 1.37 g (6.6 mmol) of 3-(1,1,3,3,3-pentamethy-disiloxanyl)-propanol (see above) and 3 mg of tetraisopropyl ortho titanate. The mixture was heated to 115° C. to 120° C. at a vacuum of 360 mbar with stirring for 11 hours.

Compound: CCOC(=O)/C(C#N)=C1\CC(C)(C)c2cc(OC)c(OC)cc21 [Example 1, Cyano-(2,3-dihydro-5,6-dimethoxy-3,3-dimethyl-1H-inden-1-ylidene)acetic Acid Ethyl Ester, reference compound]
- Solubility in CRODAMOL DA [1]: 1.71%
- Solubility in CÉTIOL LC [1]: 0.35%
- Solubility in CÉTIOL LC ([1]; listed as drawing 30): 0.35%

Compound: COc1cc2c(cc1OC)C(C)(C)C/C2=C(/C#N)C(=O)OCCC[Si](C)(C)O[Si](C)(C)C [Example 2, Cyano-(2,3-dihydro-5,6-dimethoxy-3,3-dimethyl-1H-inden-1-ylidene) acetic Acid-3-(1,1,3,3,3-pentamethy-disiloxanyl)-propyl Ester]
- photostability [2]: excellent photostability
- solubility in cosmetic solvents (in words) [1]: excellent solubility
- Solubility in CRODAMOL DA [1]: miscible

Compound: COc1cc2c(cc1OC)C(C)(C)C/C2=C(/C#N)C(=O)OCC(C)C[Si](C)(C)O[Si](C)(C)C (centres unmarked) [Example 3, Cyano-(2,3-dihydro-5,6-dimethoxy-3,3-dimethyl-1H-inden-1-ylidene) acetic Acid-3-(1,1,3,3,3-pentamethy-disiloxanyl)-2-methyl-propyl Ester]
- photostability [2]: same solubility and photostability qualities as described in Example 2b
- solubility in cosmetic solvents (in words) [1]: same solubility and photostability qualities as described in Example 2b
- Solubility in CRODAMOL DA [1]: miscible

Compound: COc1cc2c(cc1OC)C(C)(C)C/C2=C(/C#N)C(=O)OCCCC[Si](C)(O[Si](C)(C)C)O[Si](C)(C)C [Example 4, Cyano-(2,3-dihydro-5,6-dimethoxy-3,3-dimethyl-1H-inden-1-ylidene) acetic Acid-4-(1,3,3,3-tetramethyl-1-[(trimethylsilyl)-oxy]-disiloxanyl)-butyl Ester]
- photostability [2]: excellent photostability
- Solubility in CRODAMOL DA [1]: miscible

Compound: CC[Si](CC)(CC)CCOCCCCOC(=O)/C(C#N)=C1\CC(C)(C)c2cc(OC)c(OC)cc21 [Example 5, Cyano-(2,3-dihydro-5,6-dimethoxy-3,3-dimethyl-1H-inden-1-ylidene) acetic Acid-4-(2-triethylsilanyl-ethoxy)-butyl Ester]
- photostability [2]: same solubility and photostability qualities as described in Example 2b
- solubility in cosmetic solvents (in words) [1]: same solubility and photostability qualities as described in Example 2b
- Solubility in CRODAMOL DA [1]: miscible

Compound: CC[Si](/C=C/CCOC(=O)/C(C#N)=C1\CC(C)(C)c2cc(OC)c(OC)cc21)(CC)CC [Example 6, Cyano-(2,3-dihydro-5,6-dimethoxy-3,3-dimethyl-1H-inden-1-ylidene) acetic Acid-4-triethylsilanyl-but-3-enyl Ester]
- photostability [2]: same solubility and photostability qualities as described in Example 2b
- solubility in cosmetic solvents (in words) [1]: same solubility and photostability qualities as described in Example 2b
- Solubility in CRODAMOL DA [1]: miscible

Compound: COc1ccc2c(c1)CC(C)/C2=C(/C#N)C(=O)OCCCC[Si](C)(C)O[Si](C)(C)C (centres unmarked) [Example 7, Cyano-(2,3-dihydro-5-methoxy-2-methyl-1H-inden-1-ylidene)acetic Acid-4-(1,1,3,3,3-pentamethy-disiloxanyl)-butyl Ester]
- photostability [2]: same solubility and photostability qualities as described in Example 2b
- solubility in cosmetic solvents (in words) [1]: same solubility and photostability qualities as described in Example 2b
- Solubility in CRODAMOL DA [1]: miscible

Compound: C=C(CNC(=O)/C(C#N)=C1\CC(C)(C)c2cc(OC)c(OC)cc21)[Si](C)(O[Si](C)(C)C)O[Si](C)(C)C [Example 8, Cyano-(2,3-dihydro-5,6-dimethoxy-3,3-dimethyl-1H-inden-1-ylidene)acetic Acid-2-(1,3,3,3-tetramethyl-1-[(trimethylsilyl)-oxy]-disiloxanyl)-prop-2-enyl Amide]
- photostability [2]: same photostability qualities as described in Example 2b
- Solubility in CRODAMOL DA [1]: miscible

Compound: C#CCNC(=O)/C(C#N)=C1\CC(C)(C)c2cc(OC)c(OC)cc21 [Example 8b, 2-Cyano-2-(5,6-dimethoxy-3,3-dimethyl-indan-1-ylidene)-N-prop-2-ynyl-acetamide, reference compound]
- Solubility in CÉTIOL LC [1]: 0.04%
- Solubility in CÉTIOL LC ([1]; listed as drawing 33): 0.04%

Compound: C=C(COc1cc2c(cc1OC)/C(=C(\C#N)C(=O)OCC)CC2(C)C)[Si](C)(O[Si](C)(C)C)O[Si](C)(C)C [Example 11]
- photostability [2]: same photostability qualities as described in Example 2b
- Solubility in CRODAMOL DA [1]: miscible

Compound: CCOC(=O)/C(C#N)=C1\CC(C)(C)c2cc(OC)ccc21 [drawing 31, reference compound]
- Solubility in CRODAMOL DA [1]: 0.60%
- Solubility in CÉTIOL LC [1]: 0.10%

Compound: CCOC(=O)/C(C#N)=C1\CC(C)(C)c2cc(OC)ccc21 [drawing 32, reference compound]
- Solubility in CÉTIOL LC [1]: 0.09%
